Here are results for one molecule from PMC8347481, “Germacranolides from Carpesium divaricatum: Some New Data on Cytotoxic and Anti-Inflammatory Activity” (Molecules, 2021).

Broadly, the viability is a read-out of living cells in per cent, often relative to untreated cells. One may read the IC50 as the point on the concentration scale where inhibition reaches its midpoint.

Data set [1] in a line: LDH cell viability assay, keratinocytes. Particulars: human, HaCaT keratinocytes, read-out: Cell Viability (%) ± SD. The format is cell-based, human. How it is done:
(§1) Normal prostate epithelial cells (PNT2), two prostate cancer cell lines (Du145 and PC3), human keratinocytes (HaCaT), two melanoma cell lines (A375 and HTB140) and two colon cancer cell lines (HT29 and Caco-2) were treated with 3 at a concentration range 1.0–50.0 µg/mL. Viability of the cells was estimated using lactate dehydrogenase (LDH) assay.
(§2) Cytotoxic activity of 3 was tested on human cancer and normal cells, grouped in three panels: prostate, skin and gastrointestinal. The prostate panel comprised prostate cancer cell lines DU145 (ATCC HTB-81) and PC3 (ATCC CRL-1435) and prostate normal epithelial cells PNT2 (ECACC 95012613). Melanoma cell lines A375 (ATCC CRL-1619) and HTB140 (ATCC Hs 294T) together with human keratinocytes HaCaT (obtained as a kind gift of Prof. Marta Michalik, Department of Cell Biology, Jagiellonian University) were included in the skin panel. Two colon cancer cell lines, namely Caco-2 (ATCC HTB-37) and HT29 (ATCC HTB-38), constituted the gastrointestinal panel. Du145 cells were grown in a modified Eagle’s medium with low (1.0 g/L) glucose concentration; HT29, PC3 and PNT-2 cells were grown in Dulbecco’s modified Eagle’s medium (DMEM) and F12 HAM Nutrient Mixture; Caco-2 cells were grown in modified Eagle’s medium with nonessential amino acids (NEAA); and melanoma cells and keratinocytes were maintained in modified Eagle’s medium with high (4.5 g/L) glucose concentration. The culture media contained antibiotics and 10% fetal bovine serum (FBS). All cultures were maintained at 37 °C in a humidified, 5% CO2-containing atmosphere.
(§3) The examined compound (3) was diluted in the culture media from freshly made stock solution in MeOH (10 mg/mL) to the working concentrations (from 0 to 50 μg/mL). Cell viability was determined as described previously. […] Then, the culture medium was replaced with the medium containing different concentrations of the assessed compound (1–50 μg/mL). After 24 h of incubation, the viability of the cells was determined using colorimetric lactate dehydrogenase (LDH) assay in comparison to the controls to which corresponding aliquots of MeOH diluted with culture media were added. Cells grown in the medium without the tested compound were used as control I (negative), and the positive control (control II) was obtained by incubation of the cells in the medium containing 1% Triton X-100. LDH released from the damaged cells into the cell culture medium was quantified by measuring the absorbance at 490 nm using a Synergy II Biotek microplate reader. Cytotoxicities of the examined compounds were calculated as follows: ((absorbance of the tested sample−absorbance of control I)/(absorbance of control II−absorbance of control I)) × 100. Results were means of three independent measurements (± SD). Doxorubicin (Ebewe Pharma G.m.b.H., Unterach, Austria) was used as a reference cytostatic drug.

The next data set relates to HaCaT. The experiment in a line: LDH cell viability assay, keratinocytes. The format is cell-based, human. The conditions noted are these: Homo sapiens, 24 h, LDH assay. How it is done:
as §1, §2, §3

For another data set, the system named is HeLa cells. On the set-up: method as in PMID 29751555. The conditions noted are these: cell density 2 × 10^4, 96 h treatment; cited from earlier work.
The subject of data set [2] is normal and cancer cell lines (prostate, skin, gastrointestinal panels). The experiment in a line: LDH cytotoxicity, whole panel of normal and cancer cell lines. The format is cell-based. The conditions noted are these: Homo sapiens; 24 h treatment, cell density 1.5 × 10^4; doxorubicin: except PC3 cells; read-out: IC50 range over the cell lines. As to the method:
Cytotoxic activity of 3 was tested on human cancer and normal cells, grouped in three panels: prostate, skin and gastrointestinal. The prostate panel comprised prostate cancer cell lines DU145 (ATCC HTB-81) and PC3 (ATCC CRL-1435) and prostate normal epithelial cells PNT2 (ECACC 95012613). Melanoma cell lines A375 (ATCC CRL-1619) and HTB140 (ATCC Hs 294T) together with human keratinocytes HaCaT (obtained as a kind gift of Prof. Marta Michalik, Department of Cell Biology, Jagiellonian University) were included in the skin panel. Two colon cancer cell lines, namely Caco-2 (ATCC HTB-37) and HT29 (ATCC HTB-38), constituted the gastrointestinal panel. […]
The examined compound (3) was diluted in the culture media from freshly made stock solution in MeOH (10 mg/mL) to the working concentrations (from 0 to 50 μg/mL). Cell viability was determined as described previously. […] Then, the culture medium was replaced with the medium containing different concentrations of the assessed compound (1–50 μg/mL). After 24 h of incubation, the viability of the cells was determined using colorimetric lactate dehydrogenase (LDH) assay in comparison to the controls to which corresponding aliquots of MeOH diluted with culture media were added. […] LDH released from the damaged cells into the cell culture medium was quantified by measuring the absorbance at 490 nm using a Synergy II Biotek microplate reader. […]

Where two headings read alike, the source gives them in different places.

In the case of `C=C1C(=O)O[C@H]2[C@H]1[C@@H](O)[C@H](OC(=O)CC(C)C)[C@H](C)CCC(=O)[C@](C)(O)[C@@H]2OC(=O)C(C)C` [Compound 3], the viability at 24 h, 1 µg/mL in data set [1] (1 µg/mL) amounted to 86.8 ± 1.7%. Also, in data set [1] (3 µg/mL), the viability at 24 h, 3 µg/mL turned out to be 74.5 ± 2.29%. Also, the viability at 24 h, 5 µg/mL in data set [1] (5 µg/mL) was 64.4 ± 1.33%. Moreover, the viability at 24 h, 10 µg/mL in data set [1] (10 µg/mL) was 30.5 ± 1.32%. In addition, the viability at 24 h, 20 µg/mL in data set [1] (20 µg/mL) turned out to be 0.79 ± 0.72%. In addition, the viability at 24 h, 30 µg/mL in data set [1] (30 µg/mL) was determined as 0%. In addition, the viability at 24 h, 50 µg/mL in data set [1] (50 µg/mL) turned out to be 0%. The concentration for half-maximal inhibition (IC50) with HaCaT (read-out: IC50) was 7.95 ± 0.15 mg/L; in the data set on HaCaT (value in parentheses, read-out: IC50 (IC50 µM) (converted)) it was 17 µM; in the data set on HeLa cells, 29.4 µM; in data set [2], 8.3 to 35 µM.
